Peptide text beside a SMILES is read from it. * marks the point of attachment. Cbz = O=C(OCc1ccccc1)*; CH2F = FC*
Assays:
PC-3 cells = experiment: Western blot of apoptosis proteins in RSV infected cells; assay type: cell-based, human
Experimental: Bcl-2, Bcl-xL, Bad, Bax antibodies were obtained from Cell Signaling, while caspase-3, PARP and GFP antibodies were from Santa Cruz. Heat shock protein-70 (Hsp70) (Santa Cruz) antibody was used as a loading control. Nuclear extracts prepared from infected cells were incubated with a ^32P-labeled NF-κB oligonucleotide probe and analyzed for EMSA as described previously.

RSV infected PC-3 cells = experiment: RSV induced apoptosis (TUNEL) with caspase inhibitors or neutralizing antibodies; assay type: cell-based, human; details: for decline in RSV induced apoptosis (TUNEL): PC-3 cells, 36 h post-infection, 15 μM optimal for caspase-3, -9, -8 inhibitors
Experimental: PC-3 cells were pre-treated with control inhibitor (Z-FA-FMK) or caspase-3 (Z-DQMD-FMK), -8 (Z-IETD-FMK), -9 (Z-LEHD-FMK), -3/7 (Z-DEVD-FMK) (Calbiochem) and -12 (Z-ATAD-FMK) (MBL) inhibitors for 1 h at 37° C. Caspase-3, -8, -9 and -3/7 inhibitors at 15 μM-60 μM were used, while the caspase-12 inhibitor was used at 50 μM-100 μM. […] The cells were then washed and the infection was continued for an additional 36 h in the presence of inhibitors, following which apoptosis analysis was performed by TUNEL assay. […] In some experiments, infection was performed in the presence of both neutralizing antibody and caspase-3 or -8 inhibitors. At 36 h post-infection, cells were assayed for apoptosis. PC-3 and RWPE cells were pre-treated with either SN50 peptide (30 μM) or control SN50M (50 μM) peptide (Calbiochem) for 2 h, followed by virus infection (in the presence of peptides) for 0 h-36 h, after which cells were analyzed for apoptosis.

A549 cells = experiment: Interferon-γ+Fas antibody mediated apoptosis in A549 cells; assay type: cell-based, human
Source text: (§1) The extrinsic pathway to apoptosis is induced following engagement of death receptors (e.g., TNF-receptor and Fas) with cognate ligands (TNF and FasL), leading to the activation of caspase-8. The ER-stress pathway (12) activation leads to activation of caspase-12. Activation of both caspase-8 and caspase-12 results in caspase-3 activation and apoptosis. […] Similarly, blocking caspase-9 activity also led to significant inhibition (by 75%) in apoptosis. […] It is important to note that the caspase-8 inhibitor is active, since it reduced interferon-γ+Fas antibody mediated apoptosis (14) in A549 cells by 60%.

[1] = system: human lung epithelial A549 cells; experiment: RSV mediated apoptosis in A549 cells with caspase inhibitor; assay type: cell-based
Source text: as §1

Row | SMILES | PARP cleavage in RSV infected cells treated with inhibitor (PC-3 cells) | decline in RSV induced apoptosis (TUNEL) (RSV infected PC-3 cells) | reduction of interferon-γ+Fas antibody mediated apoptosis (A549 cells) [%] | inhibition of RSV mediated apoptosis [1] [%] | inhibition of apoptosis in infected PC-3 cells at high concentration (RSV infected PC-3 cells; up to 100 μM)
1 | COC(=O)CC[C@H](NC(=O)[C@H](CC(=O)OC)NC(=O)OCc1ccccc1)C(=O)N[C@H](C(=O)N[C@@H](CC(=O)OC)C(=O)CF)C(C)C [Z-DEVD-FMK] | prevented PARP cleavage | – | – | – | –
2 | COC(=O)C[C@H](NC(=O)[C@H](CCSC)NC(=O)[C@H](CCC(N)=O)NC(=O)[C@H](CC(=O)OC)NC(=O)OCc1ccccc1)C(=O)CF [caspase-3 inhibitor, Z-DQMD-FMK] (Cbz-D(OMe)QMD(OMe)-CH2F) | prevented PARP cleavage | 85% | – | – | –
3 | CC[C@H](C)[C@H](NC(=O)OCc1ccccc1)C(=O)N[C@@H](CCC(=O)OC)C(=O)N[C@H](C(=O)N[C@@H](CC(=O)OC)C(=O)CF)[C@@H](C)O [caspase-8 inhibitor, Z-IETD-FMK] (Cbz-IE(OMe)TD(OMe)-CH2F) | – | 15% | 60 | – | –
4 | COC(=O)CC[C@H](NC(=O)[C@H](CC(C)C)NC(=O)OCc1ccccc1)C(=O)N[C@@H](Cc1cnc[nH]1)C(=O)N[C@@H](CC(=O)OC)C(=O)CF [caspase-9 inhibitor, Z-LEHD-FMK] (Cbz-LE(OMe)HD(OMe)-CH2F) | – | 75% | – | – | –
5 | C[C@H](NC(=O)OCc1ccccc1)C(=O)N[C@H](C(=O)N[C@@H](C)C(=O)N[C@@H](CC(=O)O)C(=O)CF)[C@@H](C)O [caspase-12 inhibitor, Z-ATAD-FMK] (Cbz-ATAD-CH2F) | – | did not alter apoptosis | – | 40 | failed to inhibit apoptosis
